# Reference: US20220087961A1, “TREATMENT METHODS OF TRIPHENYL CALCILYTIC COMPOUNDS” (CALCILYTIX THERAPEUTICS, INC., priority 2020, published 2022)
# Columns and labels:
# subjects with ADH1 [1] = test: Phase 2b open-label dose-ranging study, Period 1 / Cohort 1; format: in vivo, human
# Source text: A Phase 2b, open-label dose-ranging study is designed to evaluate the safety, tolerability, and efficacy of CLTX-305 to maintain normalized albumin-corrected blood calcium (cCa) in subjects with hypocalcemia due to ADH1. An overview scheme of the Phase 2b study is illustrated in FIG. 2.
# Period 1: an inpatient stay that consists of 5 dosing days during which subjects will undergo a once-daily (QD) dose escalation for 3 days followed by 2 days of twice daily (BID) dosing at an individualized test dose of CLTX-305.
# In Period 1, eligible Cohort 1 subjects are admitted to the NIH CC after completing screening tests. On days 1-3 of admission, Cohort 1 subjects will undergo single daily dosing and protocol-specified dose-escalation of CLTX-305 from the initial dose of 30 mg on Day 1, increasing to a maximum dose of 180 mg on Day 3. Based on the individualized responses to QD dose escalation an individualized dose of CLTX-305 will be chosen for BID administration on Days 4 and 5.
# Days 1, 2 and 3 (QD Dose Escalations): Up to 8 subjects (minimum of 5) will undergo a single-dose, dose-escalation over the first 3 days of admission in Period 1. Morning doses will be administered on Days 1, 2 and 3, respectively, accompanied by frequent blood and urine sampling for 24-hours for PK/PD measures. CLTX-305 will be administered in the morning within 30 minutes prior to breakfast. If dose escalation is limited due to tolerability or hypercalcemia, then the investigator, in consultation with sponsor, may choose to interrupt the pre-specified dose escalation. In this case, the investigator, in consultation with sponsor, may choose to repeat the last well tolerated dose on Days 2 and 3, or titrate down as appropriate.
# Days 4 and 5 (BID Dose Escalation): Based on each subject's individual PD responses to QD dose-escalation, an individualized dose of CLTX-305 will be chosen for BID dosing on Days 4 and 5. CLTX-305 will be administered once in the morning and once in the evening, within 30 minutes prior to breakfast and dinner. The dose selected should be based on each subject's response in cCa and/or PTH levels during the prior QD dosing (Days 1-3).
# Days 1, 2 and 3 (QD Dose Escalations): Up to 8 subjects (minimum of 5) will undergo a single-dose, dose-escalation over the first 3 days of admission. Morning doses of 30, 90 and 180 mg will be administered on Days 1, 2 and 3, respectively, accompanied by frequent blood and urine sampling for 24-hours for PK/PD measures (For details of PK/PD assays and timepoints as shown in Table 4A-Table 4C, Table 5, and Table 6A-Table 6C CLTX-305 will be administered in the morning, with water, within 30 minutes prior to breakfast. If dose escalation is limited due to tolerability or hypercalcemia, the investigator, in consultation with sponsor, may choose to repeat the last well-tolerated dose on Days 2 and 3, or down-titrate, as appropriate (See below for dosing guidance algorithm).
# In order to characterize both the pre-study calcemic status as well as changes associated with experimental interventions, the protocol will rely on frequent measurement of albumin-corrected blood calcium concentrations. Assays will be conducted according to specifications of the NIH Clinical Center Laboratory, Bethesda, Md. The main indicator of normal versus abnormal blood calcium levels will be based on the correction for serum or plasma albumin according to the formula corrected calcium (cCa)=measured total calcium (mg/dL)+0.8(4−albumin (g/dL)) OR measured total calcium (mmol/L)+0.2(4−albumin (g/dL)), recognizing that the total calcium reported in SI units (mmol/L) can be converted to conventional units (mg/dL) by multiplying by 4. Given that enrolled subjects are expected to have both normal and stable albumin levels, the measures of total calcium and cCa are likely to be similar throughout the time course of this study. […]
# subjects with ADH1 [2] = test: Phase 2b open-label dose-ranging study, Period 2; format: in vivo, human
# Protocol: Period 2: an inpatient stay that consists of 5 dosing days during which subjects will receive BID doses of CLTX-305 based on individual responses from Period 1 (for subjects who complete Period 1) or review of aggregate data from Period 1 (for subjects in Cohort 2 entering Period 2 without prior exposure to CLTX-305). The initial dose, dose level 1 (DL1) will be administered for 2 days (48 hours) with cCa monitoring. Participants will undergo encaleret dose up- or down-titration depending on cCa levels, with a potential increase in dose if cCa remains below the lower limit of normal and potential decrease in dose if cCa is greater than or equal to the upper limit of normal. A final test day (Day 5) will include frequent blood and urine sampling to collect 24-hour PK/PD profiles after at least 3 consecutive days of dosing (at either DL1 or DL2).
# In Period 2, eligible Cohort 1 subjects, who have completed Period 1, may return after at least 8 weeks for admission to NIH for Period 2. After all Cohort 1 subjects have finished Period 1 and the data analyzed, the Sponsor will open enrolment for Cohort 2 subjects. Eligible Cohort 2 subjects may enroll directly into Period 2, after completing the screening and consent process per protocol. In Period 2 all subjects will initiate CLTX-305 BID dosing given within 30 minutes prior to breakfast and dinner on Days 1 and 2. cCa concentrations will be monitored frequently throughout Period 2, and CLTX-305 doses will be up- or down-titrated as needed to target normal cCa concentrations. Assessment of the 24-hour PK/PD profile of CLTX-305 with BID dosing will be conducted on Day 5.
# As a result, all remaining subjects in Period 2 will receive an initial CLTX-305 90 mg BID dose for at least 3-4 doses for evaluation of safety, tolerability and the ability to modulate cCa levels. The CLTX-305 dose will be up- or down-titrated as needed to maintain cCa levels below 10 mg/dL and blood phosphorus levels above the lower limit of normal. […]
# CaSR = molecular target: T1, CaSR (Homo sapiens, UniProt P41180); conditions: cell-based assays at 2 mM extracellular calcium; read-out: IC50, inhibition of the CaSR via allosteric modulation; cited from earlier work
# T1 sequence (P41180 20-1078): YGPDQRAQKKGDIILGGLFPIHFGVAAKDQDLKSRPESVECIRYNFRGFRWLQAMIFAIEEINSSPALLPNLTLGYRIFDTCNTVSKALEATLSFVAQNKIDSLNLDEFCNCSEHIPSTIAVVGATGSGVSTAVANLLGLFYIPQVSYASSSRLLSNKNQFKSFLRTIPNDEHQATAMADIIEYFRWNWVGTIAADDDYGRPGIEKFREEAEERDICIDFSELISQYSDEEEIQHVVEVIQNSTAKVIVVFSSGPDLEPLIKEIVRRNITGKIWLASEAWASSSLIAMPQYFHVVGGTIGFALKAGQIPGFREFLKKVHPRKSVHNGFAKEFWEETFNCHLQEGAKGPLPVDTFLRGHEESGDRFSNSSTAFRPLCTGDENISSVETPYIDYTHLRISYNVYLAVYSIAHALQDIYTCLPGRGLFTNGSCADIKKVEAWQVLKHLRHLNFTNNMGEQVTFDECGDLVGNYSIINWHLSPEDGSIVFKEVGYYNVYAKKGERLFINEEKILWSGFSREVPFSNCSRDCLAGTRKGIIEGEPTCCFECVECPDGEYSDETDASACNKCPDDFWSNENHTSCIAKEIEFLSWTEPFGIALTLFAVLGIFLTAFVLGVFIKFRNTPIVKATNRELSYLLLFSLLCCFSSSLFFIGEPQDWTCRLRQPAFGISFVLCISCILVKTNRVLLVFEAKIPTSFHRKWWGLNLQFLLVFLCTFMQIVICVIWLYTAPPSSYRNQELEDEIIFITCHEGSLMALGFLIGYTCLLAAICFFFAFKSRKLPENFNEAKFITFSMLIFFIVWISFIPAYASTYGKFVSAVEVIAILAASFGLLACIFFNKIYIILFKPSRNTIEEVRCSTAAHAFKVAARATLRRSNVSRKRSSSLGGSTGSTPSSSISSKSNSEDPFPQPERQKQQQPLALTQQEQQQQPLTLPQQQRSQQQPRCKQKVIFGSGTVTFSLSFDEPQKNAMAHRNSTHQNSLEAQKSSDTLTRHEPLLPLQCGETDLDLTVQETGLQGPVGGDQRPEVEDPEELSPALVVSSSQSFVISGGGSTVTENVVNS
# [3] = cited from earlier work
# [4] = non-clinical data; cited from earlier work
# [5] = cited from earlier work; remark: listed apart in the source
# [6] = system: healthy volunteers and postmenopausal women with osteoporosis; conditions: cited from earlier work
# healthy subjects = conditions: single oral dose of up to 100 mg; cited from earlier work
# [7] = preclinical; dose-limiting effects were mechanism-based serum calcium elevations; cited from earlier work
# rabbits = conditions: fetuses; cited from earlier work
# subjects with ADH1 [8] = conditions: subjects with ADH1, sample size of 5; cited from earlier work
# [9] = humans, most single doses or steady-state
# [10] = not significant when body weight taken into account
smiles,measurement,setting,value
"Cc1cc(-c2ccccc2[C@@H](C)OC[C@H](O)CNC(C)(C)Cc2ccc(Cl)c(F)c2)ccc1C(=O)O [CLTX-305, encaleret]",serious adverse events,subjects with ADH1 [1]; Period 1,no serious adverse events reported
same,"plasma exposure, dose relation (FIG. 8)","subjects with ADH1 [1]; Period 1, 30-180 mg",dose proportional increase in plasma exposure
same,Number of AEs,"subjects with ADH1 [1]; Period 1, N=6",9 n
same,tolerability,"subjects with ADH1 [1]; Period 1, escalating oral doses once or twice daily over 5 days",well-tolerated
same,"PTH, mean level over 24 hours by day 5","subjects with ADH1 [1]; Period 1, n=6, mean±SD, baseline 3.4±4.5",64.8 ± 49.6 pg/mL
same,"Magnesium, 24-hour day 5 mean","subjects with ADH1 [1]; Period 1, n=6, baseline 1.6±0.4",2.0 ± 0.5 mg/dL
same,"Phosphorus, 24-hour day 5 mean","subjects with ADH1 [1]; Period 1, n=6, baseline 4.5±0.7",2.9 ± 0.5 mg/dL
same,"Albumin-corrected blood calcium (cCa), 24-hour mean on day 5","subjects with ADH1 [1]; Period 1, n=6, baseline 7.6±0.6",9.0 ± 0.5 mg/dL
same,Twenty-four hour urine calcium on day 5,"subjects with ADH1 [1]; Period 1, n=6, screening 436±255 on conventional therapy",63 ± 127 mg/day
same,subjects in whom urinary calcium excretion became normal,"subjects with ADH1 [1]; Period 1, of 6",3 subjects
same,subjects in whom urinary calcium excretion became undetectable,"subjects with ADH1 [1]; Period 1, of 6",3 subjects
same,serious adverse events,subjects with ADH1 [2]; Period 2 (Periods 1 and 2),no serious adverse events reported
same,tolerability,"subjects with ADH1 [2]; Period 2 (Periods 1 and 2), once or twice daily over 5 days",well-tolerated
same,Number of AEs,"subjects with ADH1 [2]; Period 2, n=13",12 n
same,IC50,CaSR,86.2 nM
same,dose proportionality of plasma concentrations,"[3]; 5, 10, 15, 30, 50 and 100 mg, fasted state",Dose-proportional increases
same,age-related or race differences in pharmacokinetics,[3]; US population vs. Japanese subjects,No significant age-related or race differences
same,half-life of CLTX-305 at steady state,[3]; as stated in the study assessment section,10 to 14 h
same,food effect on plasma concentrations,[3]; dose range 5-100 mg,without significant food effect
same,tmax median,[3]; [9],1.5 h
same,tmax range,[3]; [9],0.75 to 3 h
same,elimination half-life (t1/2) after single doses,"[3]; humans, single doses",approximately 6.5 hours
same,elimination half-life (t1/2) at steady state,"[3]; humans, steady state (14 days)",11 to 14 h
same,excretion of unchanged CLTX-305 and metabolites into urine,"[3]; humans, total of parent and metabolite",< 5%
same,AUC higher in females,[3]; [10],approximately 37%
same,Cmax higher in females,[3]; [10],~30%
same,accumulation,"[3]; once daily (QD) for two weeks, Japanese postmenopausal women",minimal accumulation
same,main route of elimination,[4],fecal excretion was the main route of elimination
same,increase in AUC0-24 on co-administration with ketoconazole,[5],approximately 2 ×
same,increase in Cmax on co-administration with ketoconazole,[5],approximately 1.67 ×
same,acute safety and tolerability,"[6]; 5-100 mg, non-ADH1 subjects",acutely safe and well tolerated
same,safety issues or signals,"[6]; acute dosing up to 100 mg, chronic dosing up to 15 mg QD, over 1300 healthy males and post-menopausal women",no specific safety issues or signals were seen
same,subjects with blood calcium above the upper limit of the laboratory reference range,"[6]; chronic once-daily dosing up to 15 mg, postmenopausal women, long-term trials",up to 30%
same,serious adverse events related to hyper- or hypocalcemia,"[6]; osteoporosis program, postmenopausal women",No serious adverse events (SAEs)
same,tolerability in humans during chronic treatment,[6]; up to and beyond 12 months,generally well tolerated
same,QTc prolongation,healthy subjects,no clinically meaningful QTc prolongation
same,off-target or organ-specific toxicities,[7],no off-target or other tissue or organ-specific toxicities were identified
same,dose at which incidence of fetal skeletal anomalies (fusion of the sternebra) was increased,rabbits,≥ 30 mg/kg
CC(C)(CC1Cc2ccccc2C1)NC[C@@H](O)COc1cc(CCC(=O)O)ccc1C#N [NPSP795],dose-response on iPTH,subjects with ADH1 [8],preliminary evidence for a dose-response on iPTH
